Reference: ChEMBL document CHEMBL5291721, “A preclinical secondary pharmacology resource illuminates target-adverse drug reaction associations of marketed drugs” (Nat Commun, 2023)

Columns and labels:
[1] = biological target: 5-hydroxytryptamine receptor 2A (Homo sapiens, UniProt P28223); format: functional, cell-based
[2] = biological target: T1, Alpha-1A adrenergic receptor (Homo sapiens, UniProt P35348)
T1 sequence (P35348 whole entry): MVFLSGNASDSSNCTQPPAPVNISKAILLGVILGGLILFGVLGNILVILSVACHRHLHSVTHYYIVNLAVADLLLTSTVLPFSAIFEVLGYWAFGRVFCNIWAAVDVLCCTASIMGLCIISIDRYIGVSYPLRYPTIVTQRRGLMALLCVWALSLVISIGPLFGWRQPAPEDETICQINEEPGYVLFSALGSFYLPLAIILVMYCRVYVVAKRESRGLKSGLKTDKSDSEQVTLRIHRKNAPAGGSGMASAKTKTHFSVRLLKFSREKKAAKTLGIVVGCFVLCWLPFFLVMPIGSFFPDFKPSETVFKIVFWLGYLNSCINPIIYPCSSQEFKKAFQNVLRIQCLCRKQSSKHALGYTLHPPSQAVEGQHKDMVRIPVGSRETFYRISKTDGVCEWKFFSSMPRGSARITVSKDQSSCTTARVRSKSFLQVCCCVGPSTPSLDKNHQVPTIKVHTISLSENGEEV

[3] = biological target: Beta-2 adrenergic receptor (Homo sapiens, UniProt P07550); format: functional, cell-based
Beta-2 adrenergic receptor, sequence (P07550 whole entry): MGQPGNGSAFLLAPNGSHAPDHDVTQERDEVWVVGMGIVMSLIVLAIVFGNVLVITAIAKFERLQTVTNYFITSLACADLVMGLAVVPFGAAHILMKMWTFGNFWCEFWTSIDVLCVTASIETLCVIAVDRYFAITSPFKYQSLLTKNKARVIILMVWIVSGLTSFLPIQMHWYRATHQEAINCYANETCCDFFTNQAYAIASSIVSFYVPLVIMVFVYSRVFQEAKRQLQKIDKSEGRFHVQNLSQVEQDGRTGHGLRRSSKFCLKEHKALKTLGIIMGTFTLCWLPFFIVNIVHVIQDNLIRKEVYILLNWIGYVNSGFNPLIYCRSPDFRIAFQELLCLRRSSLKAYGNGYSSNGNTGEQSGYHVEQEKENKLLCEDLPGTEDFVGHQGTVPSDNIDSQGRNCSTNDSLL

[4] = biological target: D(1A) dopamine receptor (Homo sapiens, UniProt P21728)
D(1A) dopamine receptor, sequence (P21728 whole entry): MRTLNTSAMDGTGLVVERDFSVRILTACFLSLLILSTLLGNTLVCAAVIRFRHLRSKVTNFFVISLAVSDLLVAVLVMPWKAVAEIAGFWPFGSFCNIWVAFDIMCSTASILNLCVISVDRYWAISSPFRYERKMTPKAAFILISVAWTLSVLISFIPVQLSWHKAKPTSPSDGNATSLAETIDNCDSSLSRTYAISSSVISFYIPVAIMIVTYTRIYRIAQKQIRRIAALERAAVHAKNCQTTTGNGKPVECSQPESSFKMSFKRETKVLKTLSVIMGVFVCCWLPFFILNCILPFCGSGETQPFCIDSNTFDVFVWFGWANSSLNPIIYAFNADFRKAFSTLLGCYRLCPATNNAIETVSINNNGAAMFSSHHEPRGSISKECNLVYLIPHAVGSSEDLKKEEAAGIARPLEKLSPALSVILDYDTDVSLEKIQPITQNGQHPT

[5] = biological target: T2, Equilibrative nucleoside transporter 1 (Homo sapiens, UniProt Q99808)
T2 sequence (Q99808 whole entry): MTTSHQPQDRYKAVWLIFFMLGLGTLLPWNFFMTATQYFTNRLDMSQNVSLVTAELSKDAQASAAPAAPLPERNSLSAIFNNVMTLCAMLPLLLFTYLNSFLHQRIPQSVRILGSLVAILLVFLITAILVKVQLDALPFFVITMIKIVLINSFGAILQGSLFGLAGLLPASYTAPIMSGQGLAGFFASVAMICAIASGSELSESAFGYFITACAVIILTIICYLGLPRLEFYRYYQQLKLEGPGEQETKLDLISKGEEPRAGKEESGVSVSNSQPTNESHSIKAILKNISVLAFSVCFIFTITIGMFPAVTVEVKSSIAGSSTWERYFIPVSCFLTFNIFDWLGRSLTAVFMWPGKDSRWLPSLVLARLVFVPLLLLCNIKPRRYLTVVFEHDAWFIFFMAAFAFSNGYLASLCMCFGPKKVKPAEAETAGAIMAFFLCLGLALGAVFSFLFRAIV

[6] = biological target: Sodium-dependent serotonin transporter (Homo sapiens, UniProt P31645)
Sodium-dependent serotonin transporter, sequence (P31645 whole entry): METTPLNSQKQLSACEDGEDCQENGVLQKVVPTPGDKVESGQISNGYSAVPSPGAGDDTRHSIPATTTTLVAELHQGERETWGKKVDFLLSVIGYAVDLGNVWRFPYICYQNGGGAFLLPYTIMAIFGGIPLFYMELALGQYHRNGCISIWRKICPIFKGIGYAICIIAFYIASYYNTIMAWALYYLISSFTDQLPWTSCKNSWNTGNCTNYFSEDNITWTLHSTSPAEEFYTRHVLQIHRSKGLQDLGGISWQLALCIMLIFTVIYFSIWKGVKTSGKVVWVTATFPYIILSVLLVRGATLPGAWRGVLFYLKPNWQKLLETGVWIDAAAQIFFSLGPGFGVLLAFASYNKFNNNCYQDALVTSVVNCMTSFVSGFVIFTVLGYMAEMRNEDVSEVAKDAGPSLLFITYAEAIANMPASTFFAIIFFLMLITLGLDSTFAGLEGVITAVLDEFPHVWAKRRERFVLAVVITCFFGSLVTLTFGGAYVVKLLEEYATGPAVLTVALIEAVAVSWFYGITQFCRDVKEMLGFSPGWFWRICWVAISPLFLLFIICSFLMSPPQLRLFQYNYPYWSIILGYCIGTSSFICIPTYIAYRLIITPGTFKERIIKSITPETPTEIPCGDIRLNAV

[7] = biological target: T3, Glucocorticoid receptor (Homo sapiens, UniProt P04150)
T3 sequence (P04150 whole entry): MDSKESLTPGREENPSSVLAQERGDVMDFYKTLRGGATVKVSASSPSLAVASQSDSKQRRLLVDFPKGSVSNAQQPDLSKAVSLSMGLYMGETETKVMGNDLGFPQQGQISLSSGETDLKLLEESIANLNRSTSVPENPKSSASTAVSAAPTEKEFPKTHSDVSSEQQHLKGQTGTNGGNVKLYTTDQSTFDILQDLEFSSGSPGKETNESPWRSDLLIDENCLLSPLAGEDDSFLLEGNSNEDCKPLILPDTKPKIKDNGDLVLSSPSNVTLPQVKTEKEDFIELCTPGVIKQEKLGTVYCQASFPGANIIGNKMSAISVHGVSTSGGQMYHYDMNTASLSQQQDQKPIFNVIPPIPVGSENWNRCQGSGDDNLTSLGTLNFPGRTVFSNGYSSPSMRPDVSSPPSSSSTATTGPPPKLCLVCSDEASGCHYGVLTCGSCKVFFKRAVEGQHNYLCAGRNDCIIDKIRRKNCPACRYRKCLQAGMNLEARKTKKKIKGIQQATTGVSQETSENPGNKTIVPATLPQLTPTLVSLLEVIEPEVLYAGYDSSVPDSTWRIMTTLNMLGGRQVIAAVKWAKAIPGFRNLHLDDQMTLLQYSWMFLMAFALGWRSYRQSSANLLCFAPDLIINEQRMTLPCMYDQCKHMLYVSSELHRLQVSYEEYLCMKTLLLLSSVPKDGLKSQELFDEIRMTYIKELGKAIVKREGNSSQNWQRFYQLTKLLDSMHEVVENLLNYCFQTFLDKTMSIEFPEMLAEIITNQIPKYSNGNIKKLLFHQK

[8] = biological target: T4, Neuropeptide Y receptor type 1 (Homo sapiens, UniProt P25929)
T4 sequence (P25929 whole entry): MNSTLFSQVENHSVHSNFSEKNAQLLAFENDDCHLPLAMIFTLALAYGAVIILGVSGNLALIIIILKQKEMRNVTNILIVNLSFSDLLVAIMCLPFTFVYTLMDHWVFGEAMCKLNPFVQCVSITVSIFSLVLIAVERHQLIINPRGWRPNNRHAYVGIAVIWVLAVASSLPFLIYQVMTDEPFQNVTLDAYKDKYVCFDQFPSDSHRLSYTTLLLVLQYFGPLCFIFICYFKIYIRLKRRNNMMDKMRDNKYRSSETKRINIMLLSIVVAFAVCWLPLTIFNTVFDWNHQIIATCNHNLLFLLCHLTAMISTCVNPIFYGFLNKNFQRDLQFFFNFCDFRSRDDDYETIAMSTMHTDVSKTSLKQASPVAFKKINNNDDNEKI

[9] = biological target: T5, Type-1 angiotensin II receptor (Homo sapiens, UniProt P30556)
T5 sequence (P30556 whole entry): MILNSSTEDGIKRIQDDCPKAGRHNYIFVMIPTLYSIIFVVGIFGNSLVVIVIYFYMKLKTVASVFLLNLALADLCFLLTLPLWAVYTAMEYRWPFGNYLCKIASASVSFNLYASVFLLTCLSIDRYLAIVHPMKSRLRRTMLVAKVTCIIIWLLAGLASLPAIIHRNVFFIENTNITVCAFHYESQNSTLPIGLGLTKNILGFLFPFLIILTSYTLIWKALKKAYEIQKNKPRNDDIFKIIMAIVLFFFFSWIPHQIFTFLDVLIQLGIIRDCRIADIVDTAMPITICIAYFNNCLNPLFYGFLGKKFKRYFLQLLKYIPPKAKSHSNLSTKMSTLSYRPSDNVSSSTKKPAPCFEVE

[10] = biological target: Neuronal acetylcholine receptor subunit alpha-4 (Homo sapiens, UniProt P43681)
Neuronal acetylcholine receptor subunit alpha-4, sequence (P43681 whole entry): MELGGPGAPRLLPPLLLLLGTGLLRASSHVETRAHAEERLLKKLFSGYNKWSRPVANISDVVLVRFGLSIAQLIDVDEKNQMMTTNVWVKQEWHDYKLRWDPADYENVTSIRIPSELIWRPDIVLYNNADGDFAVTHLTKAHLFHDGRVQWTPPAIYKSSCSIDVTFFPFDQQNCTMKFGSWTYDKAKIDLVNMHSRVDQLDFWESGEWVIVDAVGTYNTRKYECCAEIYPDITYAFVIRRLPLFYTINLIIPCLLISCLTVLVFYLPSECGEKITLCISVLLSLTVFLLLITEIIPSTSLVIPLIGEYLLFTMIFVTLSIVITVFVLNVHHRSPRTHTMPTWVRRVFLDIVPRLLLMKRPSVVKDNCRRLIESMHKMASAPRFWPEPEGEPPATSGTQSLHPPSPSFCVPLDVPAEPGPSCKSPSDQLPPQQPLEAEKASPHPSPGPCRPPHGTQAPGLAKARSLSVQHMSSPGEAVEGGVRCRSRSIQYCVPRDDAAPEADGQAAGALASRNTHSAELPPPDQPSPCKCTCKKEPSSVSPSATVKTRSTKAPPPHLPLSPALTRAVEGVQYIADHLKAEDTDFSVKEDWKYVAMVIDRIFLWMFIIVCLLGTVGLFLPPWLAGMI

[11] = biological target: Beta-1 adrenergic receptor (Homo sapiens, UniProt P08588); format: functional
Beta-1 adrenergic receptor, sequence (P08588 whole entry): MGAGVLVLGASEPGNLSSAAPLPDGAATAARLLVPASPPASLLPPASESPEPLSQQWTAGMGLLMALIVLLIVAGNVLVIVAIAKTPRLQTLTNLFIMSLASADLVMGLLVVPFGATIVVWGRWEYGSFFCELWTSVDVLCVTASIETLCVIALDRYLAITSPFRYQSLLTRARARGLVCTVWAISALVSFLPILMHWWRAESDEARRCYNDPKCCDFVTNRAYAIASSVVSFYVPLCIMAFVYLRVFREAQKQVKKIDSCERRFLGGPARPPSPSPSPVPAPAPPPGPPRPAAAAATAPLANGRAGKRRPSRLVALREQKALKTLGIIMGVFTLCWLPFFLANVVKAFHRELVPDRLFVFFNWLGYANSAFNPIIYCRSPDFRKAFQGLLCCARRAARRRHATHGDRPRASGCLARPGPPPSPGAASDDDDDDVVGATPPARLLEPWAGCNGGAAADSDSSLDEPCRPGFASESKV

[12] = biological target: Histamine H3 receptor (Homo sapiens, UniProt Q9Y5N1)
Histamine H3 receptor, sequence (Q9Y5N1 whole entry): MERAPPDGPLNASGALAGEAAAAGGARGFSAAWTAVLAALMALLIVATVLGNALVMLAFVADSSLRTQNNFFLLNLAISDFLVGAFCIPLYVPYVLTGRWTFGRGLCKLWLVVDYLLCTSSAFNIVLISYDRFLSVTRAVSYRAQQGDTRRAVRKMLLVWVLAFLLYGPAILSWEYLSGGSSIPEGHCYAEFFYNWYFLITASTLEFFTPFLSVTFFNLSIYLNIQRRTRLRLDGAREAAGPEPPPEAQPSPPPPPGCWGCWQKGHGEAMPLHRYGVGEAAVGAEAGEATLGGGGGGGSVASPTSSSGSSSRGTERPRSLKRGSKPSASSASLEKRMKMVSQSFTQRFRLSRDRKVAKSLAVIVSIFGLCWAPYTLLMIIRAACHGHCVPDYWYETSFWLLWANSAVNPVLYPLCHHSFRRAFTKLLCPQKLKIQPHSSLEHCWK

[13] = biological target: Melanocortin receptor 4 (Homo sapiens, UniProt P32245)
Melanocortin receptor 4, sequence (P32245 whole entry): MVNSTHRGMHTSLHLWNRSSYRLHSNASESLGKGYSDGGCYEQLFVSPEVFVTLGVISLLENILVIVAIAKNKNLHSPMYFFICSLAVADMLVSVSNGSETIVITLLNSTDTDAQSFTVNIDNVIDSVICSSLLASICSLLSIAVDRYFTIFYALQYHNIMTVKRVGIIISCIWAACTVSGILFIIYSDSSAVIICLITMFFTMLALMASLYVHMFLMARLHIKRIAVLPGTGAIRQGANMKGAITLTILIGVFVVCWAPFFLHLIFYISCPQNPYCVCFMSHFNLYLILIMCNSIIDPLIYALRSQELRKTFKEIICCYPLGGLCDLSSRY
Note: assay procedure not described here.

5-hydroxytryptamine receptor 2A, sequence (P28223 whole entry): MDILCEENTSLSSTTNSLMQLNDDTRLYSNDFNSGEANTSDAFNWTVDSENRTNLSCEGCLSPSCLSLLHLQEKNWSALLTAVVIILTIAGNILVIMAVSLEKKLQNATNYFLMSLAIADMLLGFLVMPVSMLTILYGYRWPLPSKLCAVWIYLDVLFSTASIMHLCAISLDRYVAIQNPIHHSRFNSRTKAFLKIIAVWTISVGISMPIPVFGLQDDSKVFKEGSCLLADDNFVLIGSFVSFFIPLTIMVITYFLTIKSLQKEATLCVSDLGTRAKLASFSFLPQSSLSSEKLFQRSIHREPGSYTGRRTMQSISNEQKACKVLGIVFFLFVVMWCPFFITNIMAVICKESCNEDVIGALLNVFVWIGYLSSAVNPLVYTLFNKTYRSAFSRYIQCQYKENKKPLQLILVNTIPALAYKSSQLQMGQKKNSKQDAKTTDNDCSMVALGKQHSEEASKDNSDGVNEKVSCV

Compound	AC50 [1] [µM]	AC50 [2] [µM]	AC50 [3] [µM]	AC50 [4] [µM]	other results
CO/N=C(\C(=O)N[C@@H]1C(=O)N2C(C(=O)OCOC(=O)C(C)(C)C)=C(C)CS[C@H]12)c1csc(N)n1	> 30	> 30	> 30	> 30	–
O=C(Cn1ccnc1[N+](=O)[O-])NCc1ccccc1 [BENZNIDAZOLE]	> 30	> 30	–	> 30	AC50 [5]: > 30 µM; AC50 [6]: > 30 µM; AC50 [7]: > 30 µM; AC50 [8]: > 30 µM; AC50 [9]: > 30 µM; AC50 [10]: > 30 µM; AC50 [11]: > 30 µM; AC50 [12]: > 30 µM
COCC1=C(C(=O)OC(C)OC(=O)OC(C)C)N2C(=O)[C@@H](NC(=O)/C(=N\OC)c3csc(N)n3)[C@H]2SC1 (stereo partly specified) [CEFPODOXIME PROXETIL]	> 30	> 30	> 30	> 30	–
NS(=O)(=O)c1cc2c(cc1Cl)NC(CC1CCCC1)NS2(=O)=O (stereo unspecified) [CYCLOPENTHIAZIDE]	> 30	> 30	> 30	> 30	–
Nc1nc(-n2cc(C(=O)O)c(=O)c3cc(F)c(N4CC(O)C4)c(Cl)c32)c(F)cc1F [DELAFLOXACIN]	–	> 30	–	> 30	–
NS(=O)(=O)c1cc(Cl)c(Cl)c(S(N)(=O)=O)c1 [DICHLORPHENAMIDE]	> 10	–	> 30	–	AC50 [5]: > 10 µM; AC50 [6]: > 10 µM; AC50 [7]: > 10 µM; AC50 [8]: > 10 µM; AC50 [9]: > 10 µM; AC50 [10]: > 10 µM; AC50 [13]: > 10 µM; AC50 [11]: > 10 µM; AC50 [12]: > 10 µM
CC1=NN(c2ccccc2)C(=O)C1 [EDARAVONE]	–	> 30	–	> 30	–
N/N=c1/cc2c(n[nH]1)CCN(C(=O)c1ccccc1)C2 [ENDRALAZINE]	> 30	> 30	> 30	> 30	–
CC(C)=CCC1C(=O)N(c2ccccc2)N(c2ccccc2)C1=O [FEPRAZONE]	–	> 30	–	> 30	–
CN1C(=O)N(C)C2C1N(C)C(=O)N2C (stereo unspecified) [MEBICAR]	> 30	> 30	> 30	> 30	–
Cn1cc[nH]c1=S [METHIMAZOLE]	–	> 30	–	> 30	–
NC(=O)c1cccc2cn(-c3ccc([C@@H]4CCCNC4)cc3)nc12 [NIRAPARIB]	–	29.4	–	> 30	–
Nc1ccc(/N=N/c2ccccc2)c(N)n1 [PHENAZOPYRIDINE]	> 30	23.4	> 30	> 30	–
